# According to ChEMBL document CHEMBL1201862, “PubChem BioAssay data set” (2004):
#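 Exposure lasted 48 hours, with cells grown in 96-well plates and compounds tested at five concentrations. GI50: concentration for 50% inhibition of growth.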 Activity calls are given as the source filed them. Rule as the data show it: active = GI50 up to about 1.1 µM and inactive = higher.
# What was measured:
# Assay in all cases: DTP human tumour cell line panel, 48 h
# [1] = test system: CCRF-CEM
# [2] = test system: SK-MEL-5
# [3] = test system: XF498
# [4] = test system: IGROV-1
# [5] = test system: SNB-75
# [6] = test system: HOP-92
# [7] = test system: COLO 205
# [8] = test system: SNB-19
# [9] = test system: UACC-62
# [10] = test system: MOLT-4
# [11] = test system: OVCAR-4
# [12] = test system: DLD-1
# [13] = test system: HCT-116
# [14] = test system: HOP-62
# [15] = test system: KM12
# [16] = test system: DMS-114
# [17] = test system: SNB-78
# [18] = test system: Malme-3M
# [19] = test system: RPMI-8226
# [20] = test system: LOX IMVI
# [21] = test system: SW-620
# [22] = test system: UO-31
# [23] = test system: HOP-18
# [24] = test system: HT-29
# [25] = test system: OVCAR-5
# [26] = test system: OVCAR-8
# [27] = test system: DMS-273
# [28] = test system: LXFL 529
# [29] = test system: TK-10
# [30] = test system: SF-539
# [31] = test system: SR
# [32] = test system: U-251
# [33] = test system: HCC 2998
# [34] = test system: M14
# [35] = test system: EKVX
# [36] = test system: NCI-H23
# [37] = test system: HL-60
# [38] = test system: SF-268
# [39] = test system: A549
# [40] = test system: K562
# [41] = test system: SN12C
# [42] = test system: NCI-H226
# [43] = test system: ACHN
# [44] = test system: UACC-257
# [45] = test system: CAKI-1
# [46] = test system: M19-MEL
# [47] = test system: SF-295
# [48] = test system: NCI-H460
# [49] = test system: A498
# [50] = test system: SK-OV-3
# [51] = test system: 786-0
# [52] = test system: KM-20L2
# [53] = test system: NCI/ADR-RES
# [54] = test system: HCT-15
# [55] = test system: OVCAR-3
# [56] = test system: SK-MEL-28
# [57] = test system: MCF7
# [58] = test system: SK-MEL-2
compound,measurement,setting,value
Cc1cc(-c2ccc(/N=N/c3ccc4c(S(=O)(=O)O)cc(S(=O)(=O)O)c(N)c4c3O)c(C)c2)ccc1/N=N/c1ccc2c(S(=O)(=O)O)cc(S(=O)(=O)O)c(N)c2c1O,GI50,[1],> 100 µM (inactive)
same,GI50,[2],> 100 µM (inactive)
same,GI50,[3],> 100 µM (inactive)
same,GI50,[4],> 100 µM (inactive)
same,GI50,[5],> 100 µM (inactive)
same,GI50,[6],> 100 µM (inactive)
same,GI50,[7],> 100 µM (inactive)
same,GI50,[8],> 100 µM (inactive)
same,GI50,[9],> 100 µM (inactive)
same,GI50,[10],> 100 µM (inactive)
same,GI50,[11],> 63.4 µM (inactive)
same,GI50,[12],> 100 µM (inactive)
same,GI50,[13],> 100 µM (inactive)
same,GI50,[14],> 100 µM (inactive)
same,GI50,[15],> 100 µM (inactive)
same,GI50,[16],> 100 µM (inactive)
same,GI50,[17],> 100 µM (inactive)
same,GI50,[18],> 100 µM (inactive)
same,GI50,[19],> 100 µM (inactive)
same,GI50,[20],> 100 µM (inactive)
CCN(CC)CCCC(C)Nc1ccnc2ccc3nn(C)nc3c12 (configuration not stated),GI50,[1],25.1 µM (inactive)
same,GI50,[21],22.3 µM (inactive)
same,GI50,[22],40 µM (inactive)
same,GI50,[2],> 100 µM (inactive)
same,GI50,[23],> 100 µM (inactive)
same,GI50,[4],> 100 µM (inactive)
same,GI50,[5],> 100 µM (inactive)
same,GI50,[24],26.5 µM (inactive)
same,GI50,[25],> 100 µM (inactive)
same,GI50,[26],41.4 µM (inactive)
same,GI50,[27],26.4 µM (inactive)
same,GI50,[28],55.5 µM (inactive)
same,GI50,[7],28.6 µM (inactive)
same,GI50,[29],> 100 µM (inactive)
same,GI50,[30],37.8 µM (inactive)
same,GI50,[31],32.8 µM (inactive)
same,GI50,[32],65.6 µM (inactive)
same,GI50,[33],40.2 µM (inactive)
same,GI50,[34],23.7 µM (inactive)
same,GI50,[35],> 100 µM (inactive)
same,GI50,[8],> 100 µM (inactive)
same,GI50,[9],> 100 µM (inactive)
same,GI50,[36],> 100 µM (inactive)
same,GI50,[37],30.1 µM (inactive)
same,GI50,[10],25.3 µM (inactive)
same,GI50,[38],> 100 µM (inactive)
same,GI50,[39],47.9 µM (inactive)
same,GI50,[12],55 µM (inactive)
same,GI50,[40],23.4 µM (inactive)
same,GI50,[41],38.9 µM (inactive)
same,GI50,[13],26.2 µM (inactive)
same,GI50,[42],39.6 µM (inactive)
same,GI50,[43],65.3 µM (inactive)
same,GI50,[14],76.6 µM (inactive)
same,GI50,[15],42.3 µM (inactive)
same,GI50,[44],36 µM (inactive)
same,GI50,[17],52.7 µM (inactive)
same,GI50,[45],> 100 µM (inactive)
same,GI50,[18],50.6 µM (inactive)
same,GI50,[46],49 µM (inactive)
same,GI50,[19],53 µM (inactive)
same,GI50,[47],44.7 µM (inactive)
same,GI50,[48],32.8 µM (inactive)
same,GI50,[49],37 µM (inactive)
same,GI50,[50],> 100 µM (inactive)
same,GI50,[51],37.3 µM (inactive)
same,GI50,[20],17.9 µM (inactive)
same,GI50,[52],33 µM (inactive)
C=C1CCCC(C)(C)[C@@H]1CC/C(C)=C/Cn1c2cccc(=O)c-2nc2ccccc21,GI50,[1],0.406 µM (active)
same,GI50,[21],1.61 µM (inactive)
same,GI50,[22],2.77 µM (inactive)
same,GI50,[2],3.95 µM (inactive)
same,GI50,[23],7.1 µM (inactive)
same,GI50,[3],2.29 µM (inactive)
same,GI50,[4],1.71 µM (inactive)
same,GI50,[5],1.41 µM (inactive)
same,GI50,[24],1.77 µM (inactive)
same,GI50,[25],3.25 µM (inactive)
same,GI50,[53],0.656 µM (active)
same,GI50,[26],1.55 µM (inactive)
same,GI50,[27],1.48 µM (inactive)
same,GI50,[6],1.94 µM (inactive)
same,GI50,[54],1.18 µM
same,GI50,[7],1.96 µM (inactive)
same,GI50,[55],3.18 µM (inactive)
same,GI50,[30],1.66 µM (inactive)
same,GI50,[32],1.53 µM (inactive)
same,GI50,[33],2.06 µM (inactive)
same,GI50,[56],4.63 µM (inactive)
same,GI50,[35],4.4 µM (inactive)
same,GI50,[8],4.51 µM (inactive)
same,GI50,[9],0.771 µM (active)
same,GI50,[36],1.52 µM (inactive)
same,GI50,[37],0.127 µM (active)
same,GI50,[10],0.41 µM (active)
same,GI50,[38],1.39 µM (inactive)
same,GI50,[57],2.55 µM (inactive)
same,GI50,[11],1.81 µM (inactive)
same,GI50,[39],1.72 µM (inactive)
same,GI50,[12],1.26 µM (inactive)
same,GI50,[40],1.07 µM (active)
same,GI50,[41],1.59 µM (inactive)
same,GI50,[13],1.35 µM (inactive)
same,GI50,[42],3.99 µM (inactive)
same,GI50,[14],3.48 µM (inactive)
same,GI50,[15],2.81 µM (inactive)
same,GI50,[16],1.09 µM (active)
same,GI50,[44],1.96 µM (inactive)
same,GI50,[45],1.77 µM (inactive)
same,GI50,[46],1.26 µM (inactive)
same,GI50,[19],2.04 µM (inactive)
same,GI50,[47],1.45 µM (inactive)
same,GI50,[48],1.21 µM (inactive)
same,GI50,[58],2.37 µM (inactive)
same,GI50,[49],3.52 µM (inactive)
same,GI50,[50],4.15 µM (inactive)
same,GI50,[20],1.15 µM (inactive)
